# Assay results as given in patent US20100267796A1, “THERAPEUTIC AGENT FOR IRRITABLE BOWEL SYNDROME” (KYOWA HAKKO KOGYO CO., LTD., priority 2006, published 2010).
# What was measured:
# [1] = tested on: capsaicin-induced visceral pain; experiment: Action on capsaicin-induced visceral pain model; type: in vivo, male ddY mice; settings: doses of 3 and 30 mg/kg p.o. 30 minutes before 0.1% capsaicin into the colon; mice, n=10; 60 minutes
# Description: It has been reported that a visceral pain is induced by the administration of capsaicin into the colon [Pain, Vol. 92, No. 3, pp. 335-342 (2001)].
# A suspension of Compound 1-1 was prepared with an agate mortar using 0.5 w/v % MC.
# Capsaicin (Sigma-Aldrich) was dissolved in a physiological saline solution containing 10% ethanol (Kanto Chemical co., Ltd.) and 10% polyoxyethylene (20) sorbitan monooleate (Tween 80, Wako Pure Chemical Industries, Ltd.), and the resultant solution was used. A test compound was orally administered in a volume of 10 mL/kg, and MC was administered to a control group in the same volume.
# Male ddY mice (Japan SLC, Inc.) with a body weight of 27 g to 29 g were purchased and used in an experiment. After inspection and acclimation for 2 days or more, the mice showing favorable increases in body weight and no obvious abnormality were used. […]
# After the oral administration of Compound 1-1 or 0.5 w/v % MC, each mouse was housed in a cage and left therein. […] Then, each of the mice was placed in an acrylic cage (8 cm in length×8 cm in width×15 cm in height) and recorded with a video (Sony) for 1 hour. After the recording, the following 4 behaviors and symptoms were measured as indexes of capsaicin-induced visceral pain at an interval of 5 minutes. […]
# [2] = tested on: adenosine uptake in HEK293 cells; experiment: Adenosine uptake inhibitory activity in HEK293 cells ([3H]adenosine uptake); type: cell-based; settings: Homo sapiens, 1 min, [3H]adenosine uptake relative to 100% of control, HEK293 cells
# Description: A test was conducted according to the method of Leung et al. [Biochemical Pharmacology, Vol. 70, pp. 355-362 (2005)]. HEK293 cells (ATCC, Registration No. CRL-1537) were subcultured in a Dulbecco's modified Eagle's medium (manufactured by Invitrogen Corporation) containing 10% of fatal calf serum in a CO2 incubator using a poly-L-lysine-coated 10-cm dish (manufactured by Asahi Techno Glass Corporation). The cultured cells were seeded in a poly-L-lysine-coated 24-well plate (manufactured by Asahi Techno Glass Corporation) and cultured until the cells become confluent. […] After incubation at room temperature for 15 minutes, 0.2 mL of a Na^+-free buffer containing 100 nmol/L of [^3H] adenosine (manufactured by GE Health Care Bioscience Corporation) and each compound at each of 50 nmol/L and 500 nmol/L was added to each well. After 1 minute, the reaction solution was removed with an aspirator, and the wells were washed twice with 0.5 mL of ice-cooled PBS (phosphate-buffered saline). Then, 0.5 mL of PBS containing 5% Triton X-100 was added to each well, and the cells were scraped with a scraper. The solution in each well was homogenized by passing through a 20 G injection needle ten times and transferred to a scintillation vial containing 4 mL of clear sol (manufactured by Nacalai Tesque Inc.). Further, the wells were washed with 0.5 mL of PBS containing 5% Triton X-100, and the washing solution was added to the same vial. After sufficient agitation, radioactivity was measured using a liquid scintillation counter (Aloka Co., Ltd., LSC-3500). A relative value to 100% of an uptake of a control was indicated by percentage.
# [3] = tested on: restraint stress-induced defecation; experiment: Action on restraint stress-induced defecation; type: in vivo, male Wistar rats; settings: 10 mg/kg p.o. 1 hour before restraint stress; measured 1 hour after stress initiation; rats, n=10; control of each sub-table 1.06-1.71 g
# Description: An experiment was carried out according to the method of Kishibayashi et al. [Japanese Journal of Pharmacology, Vol. 69, No. 4, pp. 495-502 (1993)]. In the experiment, male Wistar rats aged 6 to 7 weeks (supplied from Charles River Laboratories Japan, Inc.) were used. […] The rats were lightly anesthetized with diethyl ether, and the thoracic trunk and the forelimbs were wrapped with a tape to produce mild stress. One hour after stress initiation, the wet weight of fecal pellets was measured. Each drug solution was orally administered 1 hour before restraint stress. A test compound was suspended at a concentration of 2 mg/mL in an aqueous solution of 0.5 w/v % methyl cellulose 400 cP and orally administered at a volume of 5 mL/kg (at a dose of 10 mg/kg). In a control, an aqueous solution of 0.5 w/v % methyl cellulose 400 cP was administered. Ten rats were used in each group. […] YM060, a serotonin 5-HT3 receptor antagonist [The Journal of Pharmacology and Experimental Therapeutics, Vol. 259, No. 2, pp. 815-819 (1991), Astellas Pharma. Inc., online, internet (URL: […].com/jp/companry/news/2006/pdf/060131.pdf)], which is being applied as a therapeutic agent for irritable bowel syndrome, was administered at a dose of 0.1 mg/kg.
smiles,measurement,setting,value
C[C@](O)(C(=O)Nc1cccc2c1C(=O)c1sccc1CS2(=O)=O)C(F)(F)F [Compound 1-1],numbers of pain-related behaviors,[1],suppressed the pain-related behaviors
same,activity at 0.05 µM,"[2]; 50 nmol/L compound, n=2",68%
same,activity at 0.5 µM,[2]; 500 nmol/L compound,29%
same,Wet weight of fecal pellets,[3],0.27 ± 0.06 g
